Laboratory results reported in ChEMBL document CHEMBL1143894, “Synthetic derivatives of the alpha- and beta-amyrin triterpenes and their antinociceptive properties” (2008).

Assays:
Mus musculus [1] = assay: Antinociceptive effect in sc dosed Swiss mouse assessed as inhibition of acetic acid-induced visceral pain; assay type: functional; details: read-out: ID50 (the source's name)
Mus musculus [2] = assay: Antinociceptive effect in Swiss mouse assessed as inhibition of acetic acid-induced visceral pain at 0.0001 to 30 mg/kg, ip relative to morphine; assay type: functional; details: dose mg/kg 0.0001-30; route intraperitoneal

Row | Structure (SMILES) | ED50 (Mus musculus [1]) | Inhibition (Mus musculus [2])
1 | CN1CC[C@]23c4c5ccc(O)c4O[C@H]2[C@@H](O)C=C[C@H]3[C@H]1C5 [MORPHINE] | 0.67 mg/kg | –
2 | CC(=O)Oc1ccccc1C(=O)O [ASPIRIN] | 24 mg/kg | 83%
